The values that follow are results of earlier work, collected in PubChem BioAssay AID1259409 (Chemical Carcinogenesis Research Information System (CCRIS), 2018).

In the series the test system is rodent chemically induced tumor inhibition, incidence and multiplicity. Nature of the series: CCRIS tumor inhibitor studies. The conditions noted are these: Dose [Inhibitor]: 0, Promoter: NONE USED.

`Cn1c(=O)c2c(ncn2C)n(C)c1=O`: the “tumour outcome (control, treated, inhibition, significance)” value runs as follows: (Carcinogen: 7,12-DIMETHYLBENZ[A]ANTHRACENE, 57-97-6, 500 MG/L IN DRINKING WATER OF 58 DAY OLD VIRGIN RATS (STUDY DURATION: 56 WK), Route [Inhibitor]: ORAL, Species: RAT, Strain/Sex: SPRAGUE-DAWLEY/FEMALE, Target Tissue: Type of Lesion: MAMMARY GLAND: FIBROADENOMA, Dose [Carcinogen]: 2 MG/100 G BW ONCE AT 55 D OF AGE) 86%, 68%, 21%, not significant; (Carcinogen: 7,12-DIMETHYLBENZ[A]ANTHRACENE, 57-97-6, 500 MG/L IN DRINKING WATER OF 150 DAY OLD PAROUS RATS (STUDY DURATION: 165 D), Route [Inhibitor]: ORAL, Species: RAT, Strain/Sex: SPRAGUE-DAWLEY/FEMALE, Target Tissue: Type of Lesion: MAMMARY GLAND: CARCINOMA, Dose [Carcinogen]: 20 MG/ML IN CORN OIL ONCE AT 135 D OF AGE) 21%, 3%, 86%, not calculated; (Carcinogen: 7,12-DIMETHYLBENZ[A]ANTHRACENE, 57-97-6, 500 MG/L IN DRINKING WATER OF 150 DAY OLD PAROUS RATS (STUDY DURATION: 165 D), Route [Inhibitor]: ORAL, Species: RAT, Strain/Sex: SPRAGUE-DAWLEY/FEMALE, Target Tissue: Type of Lesion: MAMMARY GLAND: FIBROADENOMA, Dose [Carcinogen]: 20 MG/ML IN CORN OIL ONCE AT 135 D OF AGE) 62%, 40%, 35%, not significant; (Carcinogen: 7,12-DIMETHYLBENZ[A]ANTHRACENE, 57-97-6, 500 MG/L IN DRINKING WATER OF 150 DAY OLD VIRGIN RATS (STUDY DURATION: 165 D), Route [Inhibitor]: ORAL, Species: RAT, Strain/Sex: SPRAGUE-DAWLEY/FEMALE, Target Tissue: Type of Lesion: MAMMARY GLAND: CARCINOMA, Dose [Carcinogen]: 20 MG/ML IN CORN OIL ONCE AT 135 D OF AGE) 45%, 20%, 56%, p<0.05; (Carcinogen: 7,12-DIMETHYLBENZ[A]ANTHRACENE, 57-97-6, 500 MG/L IN DRINKING WATER OF 150 DAY OLD VIRGIN RATS (STUDY DURATION: 165 D), Route [Inhibitor]: ORAL, Species: RAT, Strain/Sex: SPRAGUE-DAWLEY/FEMALE, Target Tissue: Type of Lesion: MAMMARY GLAND: FIBROADENOMA, Dose [Carcinogen]: 20 MG/ML IN CORN OIL ONCE AT 135 D OF AGE) 72%, 43%, 40%, p<0.05; (Carcinogen: 17BETA-ESTRADIOL, 50-28-2, PROGESTERONE, 57-83-0, Carcinogen: 17BETA-ESTRADIOL, 50-28-2, PROGESTERONE, 57-83-0, 500 MG/L IN DISTILLED DRINKING WATER FOR 23 WK BEGINNING 1 WK POST FIRST CARCINOGEN DOSE (STUDY DURATION: 24 WK), Route [Inhibitor]: ORAL, Species: MOUSE, Strain/Sex: GR/A/FEMALE, Target Tissue: Type of Lesion: MAMMARY GLAND: TUMOR, Dose [Carcinogen]: 0.5 MG/L 17BETA-ESTRADIOL IN DRINKING WATER FOR 24 WK AND 30 MG PROGESTERONE IN PELLETS RENEWED EVERY 30 D FOR 24 WK) 55/55 (100%), 52/55 (95%), 5%, not significant. Further, the “tumour outcome (control, treated, inhibition, significance)” value (Carcinogen: 17BETA-ESTRADIOL, 50-28-2, PROGESTERONE, 57-83-0, Carcinogen: 17BETA-ESTRADIOL, 50-28-2, PROGESTERONE, 57-83-0, 500 MG/L IN DISTILLED DRINKING WATER FOR 23 WK BEGINNING 1 WK POST FIRST CARCINOGEN DOSE (STUDY DURATION: 24 WK), Route [Inhibitor]: ORAL, Species: MOUSE, Strain/Sex: GRS/SN/FEMALE, Target Tissue: Type of Lesion: MAMMARY GLAND: TUMOR, Dose [Carcinogen]: 0.5 MG/L 17BETA-ESTRADIOL IN DRINKING WATER FOR 24 WK AND 30 MG PROGESTERONE IN PELLETS RENEWED EVERY 30 D FOR 24 WK) is 46/47 (98%), 44/45 (98%), 0%, not significant; the “tumour outcome (control, treated, inhibition, significance)” value (Carcinogen: BENZO[A]PYRENE, 50-32-8, 1 MG/D FOR 6 WK (STUDY DURATION: 9 WK), Route [Inhibitor]: GAVAGE, Species: MOUSE, Strain/Sex: NIGP(S)/FEMALE, Target Tissue: Type of Lesion: LUNG: ADENOMA, Dose [Carcinogen]: 0.5 MG INJECTED IN THE SCAPULAR REGION OF NEWBORN MICE ONCE) was 35%, 21%, 40%, not calculated; the “tumour outcome (control, treated, inhibition, significance)” value (Carcinogen: BENZO[A]PYRENE, 50-32-8, 1 MG/D FOR 6 WK (STUDY DURATION: 9 WK), Route [Inhibitor]: GAVAGE, Species: MOUSE, Strain/Sex: NIGP(S)/MALE, Target Tissue: Type of Lesion: LUNG: ADENOMA, Dose [Carcinogen]: 0.5 MG INJECTED IN THE SCAPULAR REGION OF NEWBORN MICE ONCE) is given as 48%, 18%, 63%, not calculated; the “tumour outcome (control, treated, inhibition, significance)” value (Carcinogen: BENZO[A]PYRENE, 50-32-8, 2 MG/D FOR 6 WK (STUDY DURATION: 9 WK), Route [Inhibitor]: GAVAGE, Species: MOUSE, Strain/Sex: NIGP(S)/FEMALE, Target Tissue: Type of Lesion: LUNG: ADENOMA, Dose [Carcinogen]: 0.5 MG INJECTED IN THE SCAPULAR REGION OF NEWBORN MICE ONCE) was 35%, 5%, 86%, not calculated; the “tumour outcome (control, treated, inhibition, significance)” value (Carcinogen: BENZO[A]PYRENE, 50-32-8, 2 MG/D FOR 6 WK (STUDY DURATION: 9 WK), Route [Inhibitor]: GAVAGE, Species: MOUSE, Strain/Sex: NIGP(S)/MALE, Target Tissue: Type of Lesion: LUNG: ADENOMA, Dose [Carcinogen]: 0.5 MG INJECTED IN THE SCAPULAR REGION OF NEWBORN MICE ONCE) is 48%, 5%, 90%, not calculated; the “tumour outcome (control, treated, inhibition, significance)” value (Carcinogen: DIETHYLNITROSAMINE, 55-18-5, 300 MG/L IN DRINKING WATER BEGINNING 3 D PRIOR TO FIRST CARCINOGEN DOSE AND CONTINUING TO 14 D POST LAST CARCINOGEN D, Route [Inhibitor]: ORAL, Species: RAT, Strain/Sex: BD6/FEMALE, Target Tissue: Type of Lesion: ESOPHAGUS: TUMOR, Dose [Carcinogen]: 80 MG/KG BW 1/WK FOR 9 WK) is recorded as 50%, 54%, -8%, not significant. The “tumour outcome (control, treated, inhibition, significance)” value (Carcinogen: DIETHYLNITROSAMINE, 55-18-5, 300 MG/L IN DRINKING WATER BEGINNING 3 D PRIOR TO FIRST CARCINOGEN DOSE AND CONTINUING TO 14 D POST LAST CARCINOGEN D, Route [Inhibitor]: ORAL, Species: RAT, Strain/Sex: BD6/FEMALE, Target Tissue: Type of Lesion: LIVER: TUMOR, Dose [Carcinogen]: 80 MG/KG BW 1/WK FOR 9 WK) is on record as 100%, 95%, 5%, not significant.
